Test results published in US20220213144A1, “HALOGENATED ANTIMICROBIAL PEPTOIDS” (priority 2019, published 2022).
≈ marks a conversion by molar mass, not a printed value. Where two headings read alike, the source gives them in different places. Square brackets hold non-standard residues; d marks the D form. Peptide text beside a SMILES is read from it. N(4-Br-benzyl)Gly = O=C(O)CNCc1ccc(Br)cc1; Nspe = C[C@H](NCC(=O)O)c1ccccc1; Nphe = O=C(O)CNCc1ccccc1; Nlys = NCCCCNCC(=O)O

What was measured:
[1] = Small angle X-ray scattering, critical aggregation concentration from fit; assay type: physicochemical; details: Table 2; 10-mers, SAXS at ESRF, model fit
Experimental: SAXS experiments of the 10-mer peptoids were performed on the automated BM29 bioSAXS beamline at the European Synchrotron Radiation Facility (ESRF) in Grenoble, France. The data was obtained using an energy of 12.5 keV and a detector distance of 2.87 m, covering a q range (q=4π sin(θ/2)/λ), where θ is the scattering angle and λ is the X-ray wavelength) of about 0.0047 Å-1 to 0.5 Å-1. The data set was calibrated to an absolute intensity scale using water as a primary standard. Samples (40 μL) were run through a capillary using the flow mode of the automated sample changer. SAXS data was collected in ten successive frames of 0.5 s each to monitor radiation damage, and the data reduction was done using the standard tool at BM29.
The SAXS experiments on the fully iodinated 6-, 8-, and 12-mers to determine the CAC of the compounds were performed using a Bruker NANOSTAR equipped with a microfocus X-ray source (IμS Cu, Incoatec, Germany) and a VANTEC-2000 detector. Raw scattering data was calibrated to absolute intensity scale using water as a primary standard and radially averaged in order to obtain the 1D scattered intensity profile as a function of the scattering vector, with a wavelength of 1.54 Å.
where fagg is the fraction of peptoid chains aggregated in bundles, allowing for calculation of a CAC from ϕCAC=ϕ−(fagg*ϕ).

[2] = system: S. aureus and S. epidermidis; assay type: cell-based, Staphylococcus aureus, Staphylococcus epidermidis; details: span over the Gram-positive strains
Experimental: (§1) Bacterial growth inhibition was determined by using broth microdilution according to the Clinical Laboratory Standards Institute. The antibacterial activity of peptoids was tested against S. aureus ATCC 25923, ATCC29213, and methicillin resistant S. aureus USA 300, methicillin resistant S. epidermidis ATCC 51625, a biofilm producing methicillin resistant S. epidermidis […], P. aeruginosa Pa01 (H103), and E. coli ATCC 25922. Bacteria, grown on agar plates for 18 hours at 37° C., were diluted to ˜1×10^8 CFU/mL in Mueller-Hinton Broth II (MHB II). Twofold serial dilutions of peptoids in MHB II were inoculated with the bacteria to achieve a final concentration of 5×10^5 CFU/mL in polypropylene 96 U-well microtiter plates (Corning™ 3897; ThermoFisher Scientific, Roskilde), followed by incubation at 37° C. in ambient air for 18 hours. The MIC values were determined as the lowest concentration showing no visible bacterial growth. Experiments were performed twice (in technical triplicates) on different days.

S. aureus ATCC 25923 = assay type: cell-based, Staphylococcus aureus; details: S. aureus ATCC 25923
Experimental: as §1

[3] = system: methicillin-resistant S. aureus USA 300; assay type: cell-based, Staphylococcus aureus
Experimental: as §1

[4] = system: methicillin-restant S. epidermidis ATCC 51625; assay type: cell-based, Staphylococcus epidermidis; details: S. epidermidis ATCC 51625
Experimental: as §1

[5] = system: methicillin-restant S. epidermidis ET-024; assay type: cell-based, Staphylococcus epidermidis; details: S. epidermidis ET-024
Experimental: as §1

E. coli ATCC 25922 = assay type: cell-based, Escherichia coli
Experimental: as §1

P. aeruginosa PA01 = assay type: cell-based, Pseudomonas aeruginosa; details: P. aeruginosa PA01 H103
Experimental: as §1

[6] = Cell viability assay (MTS/PMS), HaCaT cell line; assay type: cell-based; details: human, text b151, read-out: IC50 (cytotoxicity, HaCaT)
Experimental: An immortalized human keratinocytes (HaCaT) cell line (Gift from David Gram Naym at Bispebjerg Hospital) was cultured to ˜90% confluence after 21-25 h of growth under standard conditions (5% CO2/95% 02 at 37° C.). Cells were cultured in Dulbecco's Modified Eagle's Medium supplemented with 10% (v/v) fetal bovine serum (FBS). All culture media were supplemented with penicillin (100 IU/mL) and streptomycin (100 μg/mL). All cell media and supplements were obtained from Sigma-Aldrich (St. Louis, Mo., United States). The 96-well plates were obtained from Corning Costar (Sigma-Aldrich, Brondby, Denmark).
Cell viability assessment was performed on cell monolayers grown to ˜90% confluence in 96-well plates using the MTS/PMS assay as previously described. Briefly, the adhered cells were washed with 37° C. PBS solution (ThermoFisher Scientific, Roskilde) and exposed for 1 h at 37° C. to 100 μL of peptoid dissolved in the medium also used for culturing of the cell line (at concentrations in the range 0-1000 μg/mL). The cells were then washed twice with 37° C. PBS. […] A plate reader (SpectraMax i3X; Molecular devices, San Jose, Calif.) was used to measure the absorbance at 492 nm. The relative viability was calculated by using 0.2% (w/v) sodium dodecyl sulfate (SDS) as the positive control, while cells exposed to medium without test compound were used as the negative control. […]

[7] = intraperitoneal; Czyzewski et al. 2016; cited from earlier work
[8] = in words; cited from earlier work

SMILES	CAC [1] [mg/mL]	MICs [2] [µg/mL]	MIC SA^a (S. aureus ATCC 25923; Table 4) [µg/mL]	MIC SA^a (S. aureus ATCC 25923; Table 5) [µg/mL]	MIC MRSA^b ([3]; Table 4) [µg/mL]	MIC MRSA^b ([3]; Table 5) [µg/mL]	MIC MRSE^d ([4]; Table 4) [µg/mL]	MIC MRSE^d ([4]; Table 5) [µg/mL]	MIC MRSE^c ([5]; Table 4) [µg/mL]	MIC MRSE^c ([5]; Table 5) [µg/mL]	MIC EC^e (E. coli ATCC 25922; Table 4) [µg/mL]	MIC EC^e (E. coli ATCC 25922; Table 5) [µg/mL]	MIC PA^f (P. aeruginosa PA01; Table 4) [µg/mL]	MIC PA^f (P. aeruginosa PA01; Table 5) [µg/mL]	IC50 at 1 h [6] [µg/mL]	tolerability intraperitoneally in vivo [7]	cytotoxicity in vitro [8]
NCCCCNCC(=O)N(CC(=O)N(CCCCN)CC(=O)N(CC(=O)N(CCCCN)CC(=O)N(CC(=O)N(CCCCN)CC(=O)N(CC(=O)N(CCCCN)CC(=O)N(CC(N)=O)Cc1ccc(Br)cc1)Cc1ccccc1)Cc1ccc(Br)cc1)Cc1ccccc1)Cc1ccc(Br)cc1 [Compound 26] (H-[Nlys][N(4-Br-benzyl)Gly][Nlys][Nphe][Nlys][N(4-Br-benzyl)Gly][Nlys][Nphe][Nlys][N(4-Br-benzyl)Gly]-NH2)	>5	1 to 8	–	–	–	–	–	–	–	–	–	–	–	–	–	–	–
C[C@@H](c1ccccc1)N(CC(N)=O)C(=O)CN(C(=O)CN(CCCCN)C(=O)CN(C(=O)CN(C(=O)CN(CCCCN)C(=O)CN(C(=O)CN(C(=O)CN(CCCCN)C(=O)CN(C(=O)CN(C(=O)CNCCCCN)[C@@H](C)c1ccccc1)[C@@H](C)c1ccccc1)[C@@H](C)c1ccccc1)[C@@H](C)c1ccccc1)[C@@H](C)c1ccccc1)[C@@H](C)c1ccccc1)[C@@H](C)c1ccccc1 [Peptoid 1, H-(NLys-Nspe-Nspe)4-NH2] (H-[Nlys][Nspe][Nspe][Nlys][Nspe][Nspe][Nlys][Nspe][Nspe][Nlys][Nspe][Nspe]-NH2)	–	–	8 (≈ 4.4 µM)	8 (≈ 4.4 µM)	8 (≈ 4.4 µM)	8 (≈ 4.4 µM)	8 (≈ 4.4 µM)	8 (≈ 4.4 µM)	4 (≈ 2.2 µM)	4 (≈ 2.2 µM)	8 (≈ 4.4 µM)	8 (≈ 4.4 µM)	16 (≈ 8.79 µM)	16 (≈ 8.79 µM)	35 (≈ 19.2 µM)	reasonably well tolerated	relatively high cytotoxicity
